The results in this text go back to patent publication US10729130B2, “Nematicidal compositions and methods of using them” (Eden Research plc, priority 2004, dated 2020).

Series [1] can be described thus: Baker's YP loading of different terpenes and terpene mixtures. Details: key to Free Terpene: +: “free terpene” refers to the visible presence of terpene in the centrifuged reaction mixture; −: The absence of free terpene indicates complete absorption of the terpene by the particles. The settings on record: for Free Terpene: Baker's YP 250 mg/ml 500 μl; for Vol. Loaded μl: approximate maximal terpene loading in Baker's YP; for % Loaded w/w: maximal loading in Baker's YP, ratio of terpene loaded to particle present, weight for weight. In kind it is physicochemical. The protocol: (§1) Increasing volumes of terpene emulsion were mixed with 250 mg/ml Baker's YP or 250 mg/ml SAF Mannan™ overnight at room temperature as shown in Tables 27 and 28. Samples were centrifuged at 14,000×g for 10 minutes and the appearance of free terpene floating on the aqueous layer was scored. The highest volume of terpene emulsion absorbed by Baker's YP or SAF Mannan™ as evidenced by the absence of free terpene was recorded as the volume of absorbed terpene emulsion. Colour of encapsulated terpenes in the pellet was recorded.
(§2) Percentage loaded represents a ratio of the amount of terpene loaded to the amount of particle present (weight for weight).

Series [2] can be described thus: SAF Mannan loading of different terpenes and terpene mixtures. In kind it is physicochemical. Also on record: key to Free Terpene: +: “free terpene” refers to the visible presence of terpene in the centrifuged reaction mixture; −: The absence of free terpene indicates complete absorption of the terpene by the particles; key to Free Terpene: phase inversion remark: Inverted = Phase Inverted - solids floating on top - no free oil; W = white; Y = yellow. The note with it: for Free Terpene: SAF Mannan 500 μl (250 mg/ml), overnight, room temperature; for Vol. loaded (maximal terpene loading in SAF Mannan): approximate maximal loading, volume of terpene emulsion absorbed by SAF Mannan; for % Loaded w/w (maximal terpene loading in SAF Mannan): ratio of amount of terpene loaded to amount of particle present (weight for weight); for Free Terpene: phase inversion remark: SAF Mannan 500 μl, second line of the Free Terpene cell. On the procedure: as §1, §2

Series [3] in a line: Terpene stability: yellow colored oxidation product (colour of encapsulated terpene pellet). Details: key to Colour: W = white; Y = yellow; sl = slight; int = intermediate. In kind it is physicochemical. The protocol: Loading reactions were set up as shown in Table 25 and left to incubate overnight. Samples were centrifuged at 14,000×g for 10 minutes and the appearance of free terpene floating on the aqueous layer and the color of the encapsulated terpenes in the pellet was scored. The highest volume of terpene absorbed by particles as evidenced by the absence of free terpene was recorded as the volume of absorbed terpene emulsion. The reactions were incubated for 1, 3, 6, 9 and 24 hours at room temperature or 37° C. After incubation samples were centrifuged at 14,000×g for 10 minutes and the appearance of free terpene floating on the aqueous layer was scored. The highest volume of terpene absorbed by the particles as evidenced by the absence of free terpene was recorded as the volume of absorbed terpene emulsion. Colour of the encapsulated pellet was scored at 24 hours. Increasing volumes of terpene emulsion were mixed with 250 mg/ml Baker's YP or 250 mg/ml SAF Mannan™ overnight at room temperature as shown in Tables 27 and 28. Samples were centrifuged at 14,000×g for 10 minutes and the appearance of free terpene floating on the aqueous layer was scored. The highest volume of terpene emulsion absorbed by Baker's YP or SAF Mannan™ as evidenced by the absence of free terpene was recorded as the volume of absorbed terpene emulsion. Colour of encapsulated terpenes in the pellet was recorded.

In series [4] the test system is root-knot nematodes. The experiment in a line: Nematicidal activity of high purity versus low purity citral. It counts as in vivo, root-knot nematode. The settings on record: average of four replicates. On the procedure: Compositions of regular and technical ciral at 250 and 125 ppm were produced in 1% Tween 80 and incubated with root-knot nematodes a in the same way as previously described. Observations of the kill rate (percentage dead) were made at 21 and 42 hours.
The results are shown below in Table 13 and are the average of four replicates.

A short description of series [5]: Solution levels of terpenes in water (true solution by shear blending). In kind it is physicochemical. The settings on record: maximum level solubilized in water by solution-forming shear blending.
[6] abbreviates: emulsion 15 μl, 1% Tween-80 485 μl.
Where [7] appears, read: emulsion 37.5 μl, 1% Tween-80 462.5 μl.
The mark [8] stands for this setting: emulsion 75 μl, 1% Tween-80 425 μl.
[9] abbreviates: emulsion 150 μl, 1% Tween-80 350 μl.
[10] abbreviates: emulsion 225 μl, 1% Tween-80 275 μl.
Setting [11] is: emulsion 450 μl, 1% Tween-80 50 μl.
The mark [12] stands for this setting: terpene emulsion vol 15, 1% Tween-80 485 μl.
[13] abbreviates: terpene emulsion vol 37.5, 1% Tween-80 462.5 μl.
Where [14] appears, read: terpene emulsion vol 75, 1% Tween-80 425 μl.
[15] abbreviates: terpene emulsion vol 150, 1% Tween-80 350 μl.
Where [16] appears, read: terpene emulsion vol 225, 1% Tween-80 275 μl.
Where [17] appears, read: terpene emulsion vol 450, 1% Tween-80 50 μl.
The mark [18] stands for this setting: Table 27, Baker's YP, emulsion 15 μl.
[19] abbreviates: Table 27, Baker's YP, emulsion 37.5 μl.
The mark [20] stands for this setting: Table 27, Baker's YP, emulsion 75 μl.
The mark [21] stands for this setting: Table 27, Baker's YP, emulsion 112.5 μl.
The mark [22] stands for this setting: Table 27, Baker's YP, emulsion 150 μl.
The mark [23] stands for this setting: Table 27, Baker's YP, emulsion 225 μl.
[24] abbreviates: Table 27, Baker's YP, emulsion 450 μl.
The mark [25] stands for this setting: colour of encapsulated terpene in pellet, SAF Mannan 500 μl, terpene emulsion vol 15.
Setting [26] is: colour of encapsulated terpene in pellet, SAF Mannan 500 μl, terpene emulsion vol 37.5.
The mark [27] stands for this setting: colour of encapsulated terpene in pellet, SAF Mannan 500 μl, terpene emulsion vol 75.
Setting [28] is: colour of encapsulated terpene in pellet, SAF Mannan 500 μl, terpene emulsion vol 112.5.
Where [29] appears, read: colour of encapsulated terpene in pellet, SAF Mannan 500 μl, terpene emulsion vol 150.
The mark [30] stands for this setting: colour of encapsulated terpene in pellet, SAF Mannan 500 μl, terpene emulsion vol 225.
Where [31] appears, read: colour of encapsulated terpene in pellet, SAF Mannan 500 μl, terpene emulsion vol 450.

Take `C=CCc1ccc(O)c(OC)c1` [Eugenol]: the “Free Terpene” value in series [1] (setting [6]) is given as “−”; in series [1] (setting [7]) it was “−”; in series [1] (setting [8]) it was “−”; in series [1] (setting [9]), “+”; in series [1] (setting [10]), “+”; in series [1] (setting [11]), “+”. Further, the “Free Terpene” value in series [2] (setting [12]) is on record as “−”; in series [2] (setting [13]), “−”; in series [2] (setting [14]), “−”; in series [2] (setting [15]), “+”; in series [2] (setting [16]), “+”; in series [2] (setting [17]), “+”. Also, the “Vol. Loaded μl” value in series [1] was found to be 75 µL. In addition, the “% Loaded w/w” value in series [1] is listed as 67% w/w. The “Vol. loaded (maximal terpene loading in SAF Mannan)” value in series [2] stood at 112.5 µL. Also, the “% Loaded w/w (maximal terpene loading in SAF Mannan)” value in series [2] amounted to 100% w/w. The Colour entry in series [3] (setting [18]), in series [3] (setting [19]), in series [3] (setting [20]), in series [3] (setting [21]), in series [3] (setting [22]) and in series [3] (setting [23]) was “W” each time. Also, the Colour entry in series [3] (setting [24]), in series [3] (setting [25]), in series [3] (setting [26]), in series [3] (setting [27]), in series [3] (setting [28]) and in series [3] (setting [29]) was “W” throughout. Moreover, the Colour result in series [3] (setting [30]) and in series [3] (setting [31]) was “W” throughout.

`CC(C)=CCCC(C)=CC=O` [Citral (80% pure), citral]: the average percentage dead was 29% in series [4] (125 ppm in 1% Tween 80, 21 h); 27% in series [4] (125 ppm in 1% Tween 80, 42 h); 89% in series [4] (250 ppm in 1% Tween 80, 21 h); 96% in series [4] (250 ppm in 1% Tween 80, 42 h).

On to Terpeniol, for which the “Solution Level” value in series [5] is on record as 500 ppm.

With `CC(C)=CCCC(C)=CC=O` [Citral (98% pure), citral], the average percentage dead is given as 23% in series [4] (125 ppm in 1% Tween 80, 21 h); 22% in series [4] (125 ppm in 1% Tween 80, 42 h); 87% in series [4] (250 ppm in 1% Tween 80, 21 h); 87% in series [4] (250 ppm in 1% Tween 80, 42 h).

For the molecule `CC(C)=CCC/C(C)=C/CO` [Geraniol], the “Solution Level” value in series [5] is 500 ppm. Also, the “Free Terpene” value in series [1] (setting [6]) is “−”; in series [1] (setting [7]) it was “−”; in series [1] (setting [8]) it was “−”; in series [1] (emulsion 112.5 μl, 1% Tween-80 387.5 μl), “+”; in series [1] (setting [9]), “+”; in series [1] (setting [10]), “+”. For the same molecule, the “Free Terpene” value in series [1] (setting [11]) is on record as “+”; in series [2] (setting [12]) it was “−”; in series [2] (setting [13]), “−”; in series [2] (setting [14]), “−”; in series [2] (terpene emulsion vol 112.5, 1% Tween-80 387.5 μl) it was “−”; in series [2] (setting [15]), “−”. Also, the “Free Terpene” value is “−” in series [2] (setting [16]) and “+” in series [2] (setting [17]). Further, the “Vol. Loaded μl” value in series [1] is 75 µL. For the same molecule, the “% Loaded w/w” value in series [1] was determined as 67% w/w. The “Free Terpene: phase inversion remark” value in series [2] (terpene emulsion vol 225) and in series [2] (terpene emulsion vol 450) was “Inverted” in each case. For the same molecule, in series [2], the “Vol. loaded (maximal terpene loading in SAF Mannan)” value was 150 µL. Moreover, the “% Loaded w/w (maximal terpene loading in SAF Mannan)” value in series [2] worked out at 133% w/w. In addition, the Colour entry in series [3] (setting [18]), in series [3] (setting [19]), in series [3] (setting [20]), in series [3] (setting [21]), in series [3] (setting [22]) and in series [3] (setting [23]) was “W” in each case. Further, the Colour result in series [3] (setting [24]), in series [3] (setting [25]), in series [3] (setting [26]), in series [3] (setting [27]), in series [3] (setting [28]) and in series [3] (setting [29]) was “W” in each case. Further, the Colour entry in series [3] (setting [30]) and in series [3] (setting [31]) was “W” throughout.

For `CC(=O)/C=C/C1=C(C)CCCC1(C)C` [b-ionone], the “Solution Level” value in series [5] came out at 500 ppm.

Regarding `C=C(C)C1CC=C(C)C(=O)C1` (stereo not shown) [Carvone], in series [5], the “Solution Level” value is listed as 500 ppm.
